Data on 1 sequence can be found in patent US10287328B2, “Treatment of diabetes, toll-like receptor 4 modulators and methods for using the same” (KeMyth Biotech Co., Ltd., priority 2016, dated 2019).

For one data set, the system named is HUVECs. The data set is described as follows: Cell apoptosis, TUNEL assay in HUVECs. The note with it: compared to control cells. Type of data set: cell-based, human. On the procedure:
(§1) Cell apoptosis was detected by using commercial terminal deoxynucleotidyl transferase-dUTP nick end labeling (TUNEL) and caspase-3 activity kits, i.e., Apo-BrdU in Situ DNA Fragmentation Assay Kit (BioVision) and NucView™ 488 Caspase-3 Enzyme Substrate (Biotium). In brief, after incubation with M199 media in the presence or absence of […] various PLY peptides, at 37° C., 5% CO2 for 1 hour, HUVECs were washed with PBS and fixed with fixation buffer on ice for 20 min. Cells were then soaked in 70% alcohol for 1 hr. After 2 times of wash by washing buffer, cells were incubated in DNA labeling solution for 60 min at 37° C. Cells were then treated with rinse buffer and incubated with antibody buffer for 30 min at room temperature. The cell nuclei were stained with propidium iodide for 30 min. Samples were observed by fluorescent microscopeand photographed charge-coupled device (CCD) camera.

The subject of data set [1] is sICAM-1, sVCAM-1, sE-selectin. Description: Serum sICAM-1, sVCAM-1 and sE-selectin (ELISA) in HFD-induced type 2 diabetic rats. The note with it: STZ-injected HFD-fed rats, compared to STZ+vehicle. It is filed as in vivo, Sprague-Dawley rats. As for the experimental part:
(§2) The Sprague-Dawley rats were allocated to two dietary regimens by feeding either normal or HFD ad libitum, for the initial period of 2 weeks. After 2 weeks of dietary manipulation, the group of rats fed HFD were injected intraperitoneally (i.p.) with a low dose of STZ (35 mg/kg b.w.), while the respective control rats were given vehicle citrate buffer (pH 4.5) in a dose volume of 1 mL/kg, i.p. Seven days after STZ injection, rats were screened for blood glucose levels. Overnight fasted (10-12 hours) animals were given glucose (3 g/kg b.w.) by gastric intubation. After 2 hours of oral administration, blood samples were taken from lateral tail vein, left to coagulate and centrifuged; then serum glucose concentration was measured. Rats having serum glucose ≥200 mg/dL after 2 hours of glucose intake were considered diabetic and selected for further pharmacological studies. The rats were allowed to continue to feed on their respective diets until the end of the study (16).
The experimental animals were divided into three groups, each group comprising six rats designated as follows: (1) group 1 served as control rats (non-DM control); (2) group 2 served as diabetic control rats (STZ+vehicle); and (3) group 3 served as diabetic treatment rats administered with C70PLY4 (2 mg/kg/3 days) in aqueous suspension i.p. for 30 days (STZ+C70PLY4). By the end of the experiment, animals were sacrificed and blood samples, muscle and liver were obtained.
The levels of insulin, sICAM-1, sVCAM-1, and E-selectin in serum were determined by using sandwich ELISA (R&D) according to manufacturer's protocols.

The nature of data set [2]: Blood glucose level in C57BL/KsJ-db/db diabetic mice. Type of data set: in vivo. The note with it: 2 mg/kg/3 days i.p. for 30 days, compared with control group, after week 2. On the procedure: Male C57BL/KsJ-db/db mice (diabetic deficiency knockout mice) at 5 weeks of age (23 g) were fed a pelletized commercial chow diet for acclimation from the arrival for 2 weeks. […]. They were given free access to food and distilled water, and the food consumption and body weight gain were measured daily and weekly, respectively. […]; and (2) group 2 served as diabetic mice administered C70PLY4 (2 mg/kg/3 days) in aqueous suspension i.p. for 30 days (C70PLY4). […] The blood was centrifuged at 1000 g for 15 min at 4° C., and plasma and erythrocyte were separated. The livers and adipose tissues were removed, washed, weighted, and frozen at −70° C. until analyzed.
Blood Glucose Test Strips and Blood Glucose Monitoring System were used to determine whole blood glucose levels on a drop of tail blood collected between 10 am and midday. Glucose concentration was determined colorimetrically using a glucose oxidase/peroxidase reagent kit. Samples were incubated with 100 μl of assay reagent at 37° C. for 30 min and measured at 540 nm. Values were expressed in mg/dL.

Another data set deals with MD2/TLR4 interaction (Homo sapiens, UniProt O00206). The data set is described as follows: In vitro protein competition binding assay for MD2/TLR4 interaction. As to conditions: MD2 50 nM. On the procedure:
The recombinant TLR4 protein was diluted in PBS (2 μg/mL) and immobilized on a 96-well (100 ng/well) ELISA plate by incubation at 37° C. for 2 h. The wells were washed three times with PBS, followed by blocking with the addition of 300 μL 5% BSA in PBS at ambient temperature overnight. Then, the plate was rewashed three times with PBST before performed competition binding assay. The binding of MD2 (50 nM) to TLR4 was competed by adding various amounts (2-fold serial dilution from 50 μM to 3.05 nM) of C70PLY4, N35PLY4, or M50PLY4 peptide, and the residual binding was examined using anti-MD2 and anti-mouse-IgG-HRP antibodies diluted in 1% BSA as described in herein.

In data set [3] the test system is caspase-3 activity in HUVECs. Type of data set: cell-based, human. As to conditions: compared to control cells. As for the experimental part:
as §1
As to caspase-3 activity assay, after variant peptide treatments, HUVECs were washed by PBS. Cells were then reacted with Caspase-3 Enzyme Substrate 1 mM for 30 min at room temperature. Cells were then observed by fluorescent microscopeand photographed CCD camera.

Data set [4] is described as follows: Blood glucose level in HFD-induced, STZ-injected type 2 diabetic rats. As to conditions: STZ-injected HFD-fed rats, 2 mg/kg/3 days i.p. for 30 days, compared to STZ+vehicle. It is filed as in vivo, Sprague-Dawley rats. As for the experimental part:
as §2, with “(16). […]” for “(16).”
Blood Glucose Test Strips and Blood Glucose Monitoring System were used to determine whole blood glucose levels on a drop of tail blood collected between 10 am and midday. Glucose concentration was determined colorimetrically using a glucose oxidase/peroxidase reagent kit. Samples were incubated with 100 μl of assay reagent at 37° C. for 30 min and measured at 540 nm. […]

MD2/TLR4 interaction, sequence (O00206 24-631): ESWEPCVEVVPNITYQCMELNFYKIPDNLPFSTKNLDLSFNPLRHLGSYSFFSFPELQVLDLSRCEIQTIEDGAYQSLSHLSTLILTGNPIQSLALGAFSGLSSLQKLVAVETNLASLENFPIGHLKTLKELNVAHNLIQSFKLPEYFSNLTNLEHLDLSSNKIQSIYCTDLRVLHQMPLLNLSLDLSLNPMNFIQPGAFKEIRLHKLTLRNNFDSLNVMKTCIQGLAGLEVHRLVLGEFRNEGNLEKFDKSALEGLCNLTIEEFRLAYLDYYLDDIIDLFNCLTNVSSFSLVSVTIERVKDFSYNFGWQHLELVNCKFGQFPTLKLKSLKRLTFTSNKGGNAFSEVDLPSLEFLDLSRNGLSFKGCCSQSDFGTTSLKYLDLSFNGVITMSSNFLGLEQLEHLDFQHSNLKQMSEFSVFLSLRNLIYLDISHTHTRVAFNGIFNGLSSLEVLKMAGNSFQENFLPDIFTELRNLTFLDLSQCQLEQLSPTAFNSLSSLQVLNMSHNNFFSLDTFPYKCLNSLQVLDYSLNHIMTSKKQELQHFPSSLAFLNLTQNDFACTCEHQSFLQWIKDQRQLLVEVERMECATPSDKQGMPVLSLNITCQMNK

Regarding “QDLTAHFTTSIPLKGNVRNLSVKIRECTGLAWEWWRTVYEKTDLPLVRKRTISIWGTTLYPQVEDKVEND [C70PLY4]”, in the data set on HUVECs, the “apoptotic potential, TUNEL assay” value is listed as “no apoptotic potential”. In data set [1], the “serum sE-selectin level” value was “decreased”, the “serum sICAM-1 level” value was “decreased sICAM-1” and the “serum sVCAM-1 level” value is reported as “decreased”. Further, in data set [2], the blood glucose level result is reported as “significantly decreases”. The “concentration at which MD2 protein is completely competed away” value at MD2/TLR4 interaction (TLR4-coated well) came to 6.25 µM. Moreover, the “blocking capability for MD2 and TLR4 protein interaction (in words)” value on MD2/TLR4 interaction (peptide 50 μM to 3.05 nM) was “dose-dependent blocking capability”. The “apoptotic potential, caspase-3 activity assay” value in data set [3] is listed as “no apoptotic potential”. Further, the blood glucose levels result in data set [4] is recorded as “decreased blood glucose”.
